Tests used:
[1] = tested on: NUGC-3 (Gastric Carcinoma); experiment: combination Emax (second highest fraction inhibited in the dose matrix, 72 h); higher = more inhibition; extreme values may be limits of the assay
Method in brief: (§1)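 After 24 hours at 37°C and 5% CO2 in 1536-well plates, cells in DMEM/F12 or RPMI plus 10% FBS received two-drug dose matrices for 72 hours. Viability came from CellTiter-Glo 2.0 luminescence and was scaled as inhibition, anchored at 0 by vehicle wells and at 1 by blank wells. Combination Emax is taken as the second-highest inhibition in the matrix, and Bliss excess as the observed combination effect less EA + EB − EA·EB, with EA and EB the single-agent effects.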

[2] = tested on: SU8686 (Pancreatic Carcinoma); experiment: as above
Method in brief: as §1

[3] = tested on: KMOE-2 (Acute Myeloid Leukemia); experiment: as above
Method in brief: as §1

[4] = tested on: VA-ES-BJ (Other Solid Carcinomas); experiment: as above
Method in brief: as §1

[5] = tested on: NCI-H1915 (Non-Small Cell Lung Carcinoma); experiment: as above
Method in brief: as §1

[6] = tested on: JVM-3 (B-Cell Non-Hodgkin's Lymphoma); experiment: as above
Method in brief: as §1

[7] = tested on: C-4-I (Cervical Carcinoma); experiment: as above
Method in brief: as §1

[8] = tested on: OSC-20 (Oral Cavity Carcinoma); experiment: as above
Method in brief: as §1

[9] = tested on: SCC-15 (Oral Cavity Carcinoma); experiment: as above
Method in brief: as §1

[10] = tested on: NEC8 (Other Solid Carcinomas); experiment: as above
Method in brief: as §1

[11] = tested on: MLMA (Other Blood Carcinomas); experiment: Bliss excess, mean over the matrix (fraction); higher = more synergy
Method in brief: as §1

[12] = tested on: MIA-PaCa-2 (Pancreatic Carcinoma); experiment: as above
Method in brief: as §1

[13] = tested on: SW13 (Other Solid Carcinomas); experiment: as above
Method in brief: as §1

[14] = tested on: Hs-766T (Pancreatic Carcinoma); experiment: as above
Method in brief: as §1

[15] = tested on: EoL-1-cell (Acute Myeloid Leukemia); experiment: as above
Method in brief: as §1

[16] = tested on: Caov-4 (Ovarian Carcinoma); experiment: as above
Method in brief: as §1

[17] = tested on: RF-48 (B-Cell Non-Hodgkin's Lymphoma); experiment: as above
Method in brief: as §1

TK10 (Kidney Carcinoma) = experiment: as above
Method in brief: as §1

[18] = tested on: KARPAS-299 (T-Cell Non-Hodgkin's Lymphoma); experiment: as above
Method in brief: as §1

ACHN (Kidney Carcinoma) = experiment: as above
Method in brief: as §1
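Wherever Bliss excess, mean over the matrix is given: after 72 h of two-drug dosing.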

SMILES	combination Emax [1]	combination Emax [2]	combination Emax [3]	combination Emax [4]	combination Emax [5]	combination Emax [6]	combination Emax [7]	combination Emax [8]	combination Emax [9]	combination Emax [10]	Bliss excess [11]	Bliss excess [12]	Bliss excess [13]	Bliss excess [14]	Bliss excess [15]	Bliss excess [16]	Bliss excess [17]	Bliss excess (TK10 (Kidney Carcinoma))	Bliss excess [18]	Bliss excess (ACHN (Kidney Carcinoma))
Cc1cc2ncnn2cc1Nc1ncc2c(n1)n(C1CCOCC1)c(=O)n2C [AZD7648] + CN(C)CCCOc1ccc(-c2ccc3ncc4c(c3c2)n(C2CCOCC2)c(=O)n4C)cn1 [AZD0156] (first compound max 10 µM, 7x7, partner max 1 µM)	0.296	0.143	0.213	0.225	0.294	0.638	0.211	0.224	0.292	0.0719	-0.0187	-0.003	0.0107	-0.0324	0.0279	0.0511	-0.0144	0.013	0.0477	0.0104
Cc1cc2ncnn2cc1Nc1ncc2c(n1)n(C1CCOCC1)c(=O)n2C [AZD7648] + O=C(c1cc(Cc2n[nH]c(=O)c3ccccc23)ccc1F)N1CCN(C(=O)C2CC2)CC1 [Olaparib] (first compound max 10 µM, 7x7, partner max 10 µM)	0.349	0.0508	0.176	0.18	0.372	0.499	0.224	0.265	0.14	0.259	-0.0087	-0.0246	-0.0454	-0.0491	0.0142	-0.015	0.0158	-0.0843	-0.0098	-0.0243
CN(CCO)CC[C@H](CSc1ccccc1)Nc1ccc(S(=O)(=O)NC(=O)c2ccc(N3CCC([C@@H](O)c4ccccc4-c4ccc(Cl)cc4)CC3)cc2)cc1S(=O)(=O)C(F)(F)F [AZD4320] + C[C@@H]1COCCN1C2=NC(=NC(=C2)C3(CC3)[S@](=N)(=O)C)C4=C5C=CNC5=NC=C4 [AZD6738] (first compound max 1 µM, 7x7, partner max 10 µM)	0.756	0.205	0.938	0.863	0.529	0.993	0.952	0.358	0.709	0.904	0.0229	-0.045	-0.0208	-0.108	0.0252	-0.027	0.0017	-0.0797	-0.0153	-0.0099
CN(CCO)CC[C@H](CSc1ccccc1)Nc1ccc(S(=O)(=O)NC(=O)c2ccc(N3CCC([C@@H](O)c4ccccc4-c4ccc(Cl)cc4)CC3)cc2)cc1S(=O)(=O)C(F)(F)F [AZD4320] + C1CN(CCC1(C(=O)N[C@@H](CCO)C2=CC=C(C=C2)Cl)N)C3=NC=NC4=C3C=CN4 [Capivasertib] (first compound max 1 µM, 7x7, partner max 3 µM)	0.127	0.0053	0.828	0.224	0.116	0.889	0.145	0.0937	0.14	0.0891	0.0534	-0.0476	-0.0326	-0.0492	0.0007	-0.0357	-0.0097	-0.0676	-0.0024	-0.0341
CN(CCO)CC[C@H](CSc1ccccc1)Nc1ccc(S(=O)(=O)NC(=O)c2ccc(N3CCC([C@@H](O)c4ccccc4-c4ccc(Cl)cc4)CC3)cc2)cc1S(=O)(=O)C(F)(F)F [AZD4320] + CCN(CCO)CCCOc1ccc2c(Nc3cc(CC(=O)Nc4cccc(F)c4)[nH]n3)ncnc2c1 [AZD2811] (first compound max 1 µM, 7x7, partner max 1 µM)	0.498	0.155	0.934	0.291	0.31	1	0.657	0.291	0.346	0.159	0.0437	0.0532	-0.0152	-0.0485	-0.002	-0.0141	0.0643	-0.0199	0.0104	0.0089
CN(CCO)CC[C@H](CSc1ccccc1)Nc1ccc(S(=O)(=O)NC(=O)c2ccc(N3CCC([C@@H](O)c4ccccc4-c4ccc(Cl)cc4)CC3)cc2)cc1S(=O)(=O)C(F)(F)F [AZD4320] + Cn1cnc2c(F)c(Nc3ccc(Br)cc3Cl)c(C(=O)NOCCO)cc21 [Selumetinib] (first compound max 1 µM, 7x7, partner max 3 µM)	0.762	0.228	1	0.203	0.583	1	0.52	0.321	0.548	0.341	0.0436	-0.0098	0.0166	-0.013	0.0593	0.0418	-0.0317	-0.0867	0.0476	0.0429
Cc1cc2ncnn2cc1Nc1ncc2c(n1)n(C1CCOCC1)c(=O)n2C [AZD7648] + C[C@@H]1COCCN1C2=NC(=NC(=C2)C3(CC3)[S@](=N)(=O)C)C4=C5C=CNC5=NC=C4 [AZD6738] (first compound max 10 µM, 7x7, partner max 10 µM)	0.665	0.232	0.586	0.73	0.364	0.809	0.929	0.41	0.565	0.7	-0.0289	-0.0254	0.0707	0.0552	-0.0123	0.0087	0.0071	0.0062	-0.0183	-0.0316
CN(CCO)CC[C@H](CSc1ccccc1)Nc1ccc(S(=O)(=O)NC(=O)c2ccc(N3CCC([C@@H](O)c4ccccc4-c4ccc(Cl)cc4)CC3)cc2)cc1S(=O)(=O)C(F)(F)F [AZD4320] + C[C@@H](Nc1cc(F)cc(F)c1)c1cc(C(=O)N(C)C)cc2c(=O)cc(N3CCOCC3)oc12 [AZD8186] (first compound max 1 µM, 7x7, partner max 3 µM)	0.777	0.216	0.887	0.296	0.455	1	0.611	0.36	0.447	0.341	0.0859	-0.0084	0.0064	0.0113	0.0255	0.0112	0.0072	-0.032	0.044	0.0163
Cc1cc2ncnn2cc1Nc1ncc2c(n1)n(C1CCOCC1)c(=O)n2C [AZD7648] + CCN(CCO)CCCOc1ccc2c(Nc3cc(CC(=O)Nc4cccc(F)c4)[nH]n3)ncnc2c1 [AZD2811] (first compound max 10 µM, 7x7, partner max 1 µM)	0.418	0.139	0.297	0.346	0.252	0.592	0.298	0.454	0.458	0.0355	-0.0095	0.0108	0.0406	-0.0197	-0.0572	0.0293	0.0013	0.0024	0.0493	-0.0051
COc1cc2c(cc1OCCCCCOc1cc3c(cc1OC)C(=O)N1C=C(C)C[C@H]1C=N3)N=C[C@@H]1CC(C)=CN1C2=O [SG3199] + O=C(c1cc(Cc2n[nH]c(=O)c3ccccc23)ccc1F)N1CCN(C(=O)C2CC2)CC1 [Olaparib] (first compound max 0.001 µM, 7x7, partner max 10 µM)	0.124	0.0347	0.0783	0.151	0.353	0.335	0.184	0.145	0.0778	0.201	-0.0269	-0.0415	-0.0184	-0.0433	-0.0348	-0.0267	0.0133	-0.0646	-0.0122	-0.0192

From the supplement of paper PMC11061612
